# Laboratory results as given in PubChem BioAssay (NCI).
#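 1) Cells in 96-well plates. 2) Compound, 48 h, 5 concentrations. 3) Linear interpolation between surrounding doses. 4) Unreached endpoint = highest concentration. GI50 = concentration required for 50% inhibition of growth. TGI: total growth inhibition.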
# Experiments:
# Assay in all cases: growth of human tumour cells (NCI), 48 h
# [1] = tested on: T-47D breast
# [2] = tested on: U251 CNS
# [3] = tested on: SK-MEL-28 melanoma
# [4] = tested on: IGROV1 ovarian
# [5] = tested on: NCI-H522 lung
# [6] = tested on: SF-295 CNS
# [7] = tested on: SF-539 CNS
# [8] = tested on: 786-0 renal
# [9] = tested on: TK-10 renal
# [10] = tested on: SK-OV-3 ovarian
# [11] = tested on: PC-3 prostate
# [12] = tested on: HCT-15 colon
# [13] = tested on: SF-268 CNS
# [14] = tested on: MDA-MB-231 breast
# [15] = tested on: MDA-MB-435
# [16] = tested on: A549 NSCLC
# [17] = tested on: OVCAR-4 ovarian
# [18] = tested on: UACC-257 melanoma
# [19] = tested on: DU-145 prostate
# [20] = tested on: HCT-116 colon
# [21] = tested on: MOLT-4 leukemia
# [22] = tested on: OVCAR-8 ovarian
# [23] = tested on: BT-549 breast
# [24] = tested on: EKVX NSCLC
# [25] = tested on: COLO 205 colon
# [26] = tested on: A498 renal
# [27] = tested on: CCRF-CEM leukemia
# [28] = tested on: SK-MEL-2 melanoma
# [29] = tested on: SW-620 colon
# [30] = tested on: MCF7 breast
# [31] = tested on: HOP-62 NSCLC
# [32] = tested on: HCC-2998 colon
# [33] = tested on: UACC-62 melanoma
# [34] = tested on: NCI-H460 lung
# [35] = tested on: NCI-H226 lung
# [36] = tested on: SNB-75 CNS
# [37] = tested on: UO-31 renal
# [38] = tested on: ACHN renal
# [39] = tested on: HT29 colon
# [40] = tested on: HS 578T breast
# [41] = tested on: RXF 393 renal
# [42] = tested on: SN12C renal
# [43] = tested on: NCI-H23 lung
# [44] = tested on: MALME-3M melanoma
# [45] = tested on: OVCAR-3 ovarian
# [46] = tested on: M14 melanoma
# [47] = tested on: OVCAR-5 ovarian
# [48] = tested on: HOP-92 NSCLC
# [49] = tested on: NCI/ADR-RES ovarian
# [50] = tested on: SNB-19 CNS
# [51] = tested on: KM12 colon
# [52] = tested on: HL-60(TB) leukemia
# [53] = tested on: CAKI-1 renal
# [54] = tested on: K-562 leukemia
# [55] = tested on: SK-MEL-5 melanoma
# [56] = tested on: LOX IMVI melanoma
smiles,measurement,setting,value
CCc1c(C)c2cc(-n3c(-c4ccc(OC)cc4)csc3=N)c(O)c(C)c2oc1=O,GI50,[1],0.551 µM
same,TGI,[1],4.24 µM
same,GI50,[2],1.77 µM
same,TGI,[2],6.09 µM
same,GI50,[3],1.55 µM
same,TGI,[3],4.42 µM
same,GI50,[4],1.08 µM
same,TGI,[4],5.25 µM
same,GI50,[5],0.646 µM
same,TGI,[5],2.46 µM
same,GI50,[6],1.52 µM
same,TGI,[6],10.3 µM
same,GI50,[7],2.14 µM
same,TGI,[7],7.25 µM
same,GI50,[8],1.7 µM
same,TGI,[8],4.72 µM
same,GI50,[9],4.36 µM
same,TGI,[9],8.35 µM
same,GI50,[10],2.85 µM
same,TGI,[10],34.4 µM
same,GI50,[11],0.752 µM
same,TGI,[11],> 100 µM
same,GI50,[12],1.21 µM
same,TGI,[12],3.95 µM
same,GI50,[13],2.1 µM
same,TGI,[13],10.3 µM
same,GI50,[14],1.52 µM
same,TGI,[14],6.39 µM
same,GI50,[15],0.355 µM
same,TGI,[15],4.16 µM
same,GI50,[16],2.7 µM
same,TGI,[16],12.3 µM
same,GI50,[17],1.52 µM
same,TGI,[17],4.43 µM
same,GI50,[18],3.15 µM
same,TGI,[18],14.2 µM
same,GI50,[19],3 µM
same,TGI,[19],12.3 µM
same,GI50,[20],1.23 µM
same,TGI,[20],2.99 µM
same,GI50,[21],1.54 µM
same,TGI,[21],> 100 µM
same,GI50,[22],2.24 µM
same,TGI,[22],8.28 µM
same,GI50,[23],1 µM
same,TGI,[23],5.02 µM
same,GI50,[24],1.24 µM
same,TGI,[24],11.1 µM
same,GI50,[25],1.94 µM
same,TGI,[25],4.88 µM
same,GI50,[26],1.94 µM
same,TGI,[26],8.72 µM
same,GI50,[27],1.54 µM
same,TGI,[27],> 100 µM
same,GI50,[28],1.66 µM
same,TGI,[28],5.84 µM
same,GI50,[29],1.32 µM
same,TGI,[29],3.28 µM
same,GI50,[30],0.82 µM
same,TGI,[30],3.07 µM
same,GI50,[31],1.67 µM
same,TGI,[31],8.53 µM
same,GI50,[32],3.09 µM
same,TGI,[32],10.2 µM
same,GI50,[33],1 µM
same,TGI,[33],2.94 µM
same,GI50,[34],2.25 µM
same,TGI,[34],10.6 µM
same,GI50,[35],2.13 µM
same,TGI,[35],9.73 µM
same,GI50,[36],1.67 µM
same,TGI,[36],> 100 µM
same,GI50,[37],0.687 µM
same,TGI,[37],3.65 µM
same,GI50,[38],1.53 µM
same,TGI,[38],3.6 µM
same,GI50,[39],1.74 µM
same,TGI,[39],6.12 µM
same,GI50,[40],2.1 µM
same,TGI,[40],> 100 µM
same,GI50,[41],1.74 µM
same,TGI,[41],6.7 µM
same,GI50,[42],1.82 µM
same,TGI,[42],4.89 µM
same,GI50,[43],1.51 µM
same,TGI,[43],5.16 µM
same,GI50,[44],1.73 µM
same,TGI,[44],6.26 µM
same,GI50,[45],1.19 µM
same,TGI,[45],3.08 µM
same,GI50,[46],1.41 µM
same,TGI,[46],6.59 µM
same,GI50,[47],2.19 µM
same,TGI,[47],4.75 µM
same,GI50,[48],1.88 µM
same,TGI,[48],7.76 µM
same,GI50,[49],1.62 µM
same,TGI,[49],10.6 µM
same,GI50,[50],2.36 µM
same,TGI,[50],8.86 µM
same,GI50,[51],1.32 µM
same,TGI,[51],8.37 µM
O=C(Oc1c(Cl)cc(Cl)cc1Cl)c1ccccc1Nc1ccnc(C(F)(F)F)c1,GI50,[52],3.97 µM
same,TGI,[52],> 100 µM
same,GI50,[1],8.55 µM
same,TGI,[1],> 100 µM
same,GI50,[2],3.04 µM
same,TGI,[2],9.32 µM
same,GI50,[3],24.1 µM
same,TGI,[3],> 100 µM
same,GI50,[4],> 100 µM
same,TGI,[4],> 100 µM
same,GI50,[5],5.7 µM
same,TGI,[5],> 100 µM
same,GI50,[6],4.16 µM
same,TGI,[6],> 100 µM
same,GI50,[8],2.95 µM
same,TGI,[8],11.1 µM
same,GI50,[9],3.41 µM
same,TGI,[9],28.4 µM
same,GI50,[11],15 µM
same,TGI,[11],> 100 µM
same,GI50,[12],2.7 µM
same,TGI,[12],10.6 µM
same,GI50,[13],3.92 µM
same,TGI,[13],> 100 µM
same,GI50,[14],3.25 µM
same,TGI,[14],18.9 µM
same,GI50,[53],7.12 µM
same,TGI,[53],> 100 µM
same,GI50,[16],3.9 µM
same,TGI,[16],71.5 µM
same,GI50,[18],12.2 µM
same,TGI,[18],57.3 µM
same,GI50,[20],1.72 µM
same,TGI,[20],4.28 µM
same,GI50,[22],3.04 µM
same,TGI,[22],49.9 µM
same,GI50,[23],2.42 µM
same,TGI,[23],6.98 µM
same,GI50,[24],3.31 µM
same,TGI,[24],13 µM
same,GI50,[54],2.42 µM
same,TGI,[54],> 100 µM
same,GI50,[25],6.24 µM
same,TGI,[25],> 100 µM
same,GI50,[28],31.1 µM
same,TGI,[28],> 100 µM
same,GI50,[29],4.59 µM
same,TGI,[29],> 100 µM
same,GI50,[30],4.68 µM
same,TGI,[30],> 100 µM
same,GI50,[31],2.66 µM
same,TGI,[31],8.8 µM
same,GI50,[55],3.07 µM
same,TGI,[55],> 100 µM
same,GI50,[33],1.74 µM
same,TGI,[33],6.06 µM
same,GI50,[34],3.38 µM
same,TGI,[34],> 100 µM
same,GI50,[35],5.93 µM
same,TGI,[35],24.6 µM
same,GI50,[37],41 µM
same,TGI,[37],> 100 µM
same,GI50,[38],2.46 µM
same,TGI,[38],6.52 µM
same,GI50,[39],4.59 µM
same,TGI,[39],> 100 µM
same,GI50,[41],9.47 µM
same,TGI,[41],> 100 µM
same,GI50,[42],3.07 µM
same,TGI,[42],14.5 µM
same,GI50,[43],2.59 µM
same,TGI,[43],6.3 µM
same,GI50,[45],4.3 µM
same,TGI,[45],> 100 µM
same,GI50,[46],2.13 µM
same,TGI,[46],4.99 µM
same,GI50,[47],4.1 µM
same,TGI,[47],16.5 µM
same,GI50,[56],1.99 µM
same,TGI,[56],5.13 µM
same,GI50,[48],> 100 µM
same,TGI,[48],> 100 µM
same,GI50,[50],7.07 µM
same,TGI,[50],> 100 µM
same,GI50,[51],4.11 µM
same,TGI,[51],32.5 µM
